How the values were obtained:
KAT6B = target: T1, KAT6B (Homo sapiens, UniProt Q8WYB5); assay: KATs acetyltransferase enzyme activity assay (TR-FRET), KAT6B; type: biochemical; conditions: Biotin-H3 (1-21) and AcCOA, 90 minutes at room temperature
T1 construct: purchased Active Motif 81224
Procedure: (§1) I. KATs acetyltransferase enzyme activity assay
(§2) • 1. The inhibitory effect of compounds on the acetyltransferase activity of KATs was evaluated using the Time-Resolved Fluorescence Resonance Energy Transfer (TR-FRET) assay. The assay was conducted in 384-well plates using Tris-HCl buffer. • 2. Compounds were diluted in DMSO and transferred to 384-well plates. Enzyme solutions (KAT6: active motif (kit), 81223; KAT6B: active motif, 81224; KAT5: SignalChem, K314-380G; KAT7: ICE, S2210F-H21HF; KAT8: Active motif, 81225) were added and the mixture was incubated at room temperature for 15 minutes. • 3. Subsequently, 2.5 µL of a mixture containing KAT6A/KAT6B: Biotin-H3 (1-21, Genscript, C6829GL060) or KAT5/7/8: Bio-H4 (1-25, Genscript, C736BGL100) AcCOA (Sigma, A2056) was added, and the reaction proceeded at room temperature for 90 minutes. • 4. After the reaction, a detection mixture containing Europium-anti-acetyl-Histone H4 Lysine (H4Kac pan) Antibody (Perkin Elmer, TRF0412) and LANCE Ultra ULight™-Streptavidin in LANCE™ Detection buffer (10x) (Perkin Elmer, CR97-100) was added, followed by incubation at room temperature for 60 minutes. • 5. HTRF signals were measured using a BMG PHERAstar FSX (Ratio: 665nm/620nm). IC50 values were calculated by nonlinear regression using a four-parameter logistic equation in GraphPad Prism 8 software.

KAT6A = target: T2, KAT6A (Homo sapiens, UniProt Q92794); assay: KATs acetyltransferase enzyme activity assay (TR-FRET), KAT6A; type: biochemical; conditions: Biotin-H3 (1-21) and AcCOA, 90 minutes at room temperature
T2 construct: purchased Active Motif 81223
Procedure: as §1
as §2, with “Enzyme solutions (KAT6: active motif (kit), 81223; KAT6B: active motif, 81224; KAT5: SignalChem, K314-380G; KAT7: ICE, S2210F-H21HF; KAT8: Active motif, 81225) were added and the mixture was incubated at room temperature for 15 minutes. • 3.” left out, “HTRF signals were measured using a BMG PHERAstar FSX (Ratio: 665nm/620nm).” left out

ZR-75-1 cells = assay: ZR-75-1 cell proliferation assay (CellTiter-Glo); type: cell-based; conditions: Homo sapiens, ZR-75-1, 240 h, total culture period of 10 days, read-out: ZR-75-1 Proliferation Inhibition IC50
Procedure: II. ZR-75-1 cell proliferation assay
• 1. ZR-75-1 cells were seeded in 96-well plates and cultured overnight in an incubator at 37°C & 5% CO2. • 2. Compounds were diluted using culture medium and added to the 96-well plates. The plates were placed back into the incubator for continued culture. Every 5 days, the cells were trypsinized, counted, and re-seeded. After the cells had fully adhered, compounds were added again for incubation, for a total culture period of 10 days. • 3. After the culture period, 60 µL of CellTiter-Glo reagent (Promega, G7573) was added to each well. The plates were protected from light and shaken for 2 minutes to lyse the cells, followed by further incubation at room temperature, protected from light, for 30 minutes. • 4. Luminescence signals were read using a BMG PHERAstar FSX. IC50 values were calculated by nonlinear regression using a four-parameter logistic equation in GraphPad Prism 8 software.

[1] = tested on: ZR-75-1 H3K23 Acetylation; assay: Histone H3 acetylation assay (H3K23 acetylation in ZR-75-1 cells); type: cell-based; conditions: Homo sapiens, 72 hours incubation, Odyssey CLx fluorescence, read-out: ZR-75-1 H3K23 Acetylation Inhibition IC50
Procedure: III. Histone H3 acetylation assay
• 1. ZR-75-1 cells were seeded at 5000 cells/40 µL per well in 384-well plates and cultured overnight in an incubator at 37°C & 5% CO2. • 2. 40 nL of serially diluted compounds were added to the 384-well plates, followed by further incubation for 72 hours. • 3. The supernatant was discarded, and 8 w/v% paraformaldehyde (final concentration was 4 w/v%) was added directly to the wells to fix the cells at room temperature. • 4. After washing twice with PBS, a permeabilization agent (40 µL of methanol) was added and incubated for 10 minutes to permeabilize the cell membranes. • 5. After washing twice with PBS, a blocking buffer was added and incubated at room temperature for 1 hour for blocking. • 6. The blocking buffer was discarded, and 20 µL of primary antibodies (recombinant Anti-Histone H3 (acetyl K23) antibody and Anti-Histone H4 antibody) diluted in blocking buffer (1:1000 by volume dilution) were added, followed by incubation at 4°C overnight. • 7. After washing three times with PBST (0.05 vol% Tween-20 in PBS), 20 µL of fluorescent secondary antibodies (IRDye 680RD Goat anti-MOUSE, Licor, 926-68070; IRDye 800CW Goat anti-Rabbit, Licor, 926-32211) diluted in blocking buffer (1:2000 by volume dilution) were added, followed by incubation at room temperature, protected from light, for 1 hour. Then, the plates were washed three times with PBST. • 8. Scanning was performed using an Odyssey CLx, and the fluorescence signal value for each well was quantified. IC50 values were calculated by nonlinear regression using a four-parameter logistic equation in GraphPad Prism 8 software.

T2 sequence (Q92794 488-778 limits assumed): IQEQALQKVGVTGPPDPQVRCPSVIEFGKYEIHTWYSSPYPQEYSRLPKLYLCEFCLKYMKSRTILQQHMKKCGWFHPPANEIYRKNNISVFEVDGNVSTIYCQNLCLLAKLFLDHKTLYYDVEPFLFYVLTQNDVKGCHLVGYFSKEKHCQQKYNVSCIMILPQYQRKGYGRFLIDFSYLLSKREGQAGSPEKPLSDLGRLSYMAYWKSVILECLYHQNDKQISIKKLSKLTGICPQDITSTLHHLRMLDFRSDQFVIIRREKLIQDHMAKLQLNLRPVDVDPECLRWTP
T1 sequence (Q8WYB5 whole entry): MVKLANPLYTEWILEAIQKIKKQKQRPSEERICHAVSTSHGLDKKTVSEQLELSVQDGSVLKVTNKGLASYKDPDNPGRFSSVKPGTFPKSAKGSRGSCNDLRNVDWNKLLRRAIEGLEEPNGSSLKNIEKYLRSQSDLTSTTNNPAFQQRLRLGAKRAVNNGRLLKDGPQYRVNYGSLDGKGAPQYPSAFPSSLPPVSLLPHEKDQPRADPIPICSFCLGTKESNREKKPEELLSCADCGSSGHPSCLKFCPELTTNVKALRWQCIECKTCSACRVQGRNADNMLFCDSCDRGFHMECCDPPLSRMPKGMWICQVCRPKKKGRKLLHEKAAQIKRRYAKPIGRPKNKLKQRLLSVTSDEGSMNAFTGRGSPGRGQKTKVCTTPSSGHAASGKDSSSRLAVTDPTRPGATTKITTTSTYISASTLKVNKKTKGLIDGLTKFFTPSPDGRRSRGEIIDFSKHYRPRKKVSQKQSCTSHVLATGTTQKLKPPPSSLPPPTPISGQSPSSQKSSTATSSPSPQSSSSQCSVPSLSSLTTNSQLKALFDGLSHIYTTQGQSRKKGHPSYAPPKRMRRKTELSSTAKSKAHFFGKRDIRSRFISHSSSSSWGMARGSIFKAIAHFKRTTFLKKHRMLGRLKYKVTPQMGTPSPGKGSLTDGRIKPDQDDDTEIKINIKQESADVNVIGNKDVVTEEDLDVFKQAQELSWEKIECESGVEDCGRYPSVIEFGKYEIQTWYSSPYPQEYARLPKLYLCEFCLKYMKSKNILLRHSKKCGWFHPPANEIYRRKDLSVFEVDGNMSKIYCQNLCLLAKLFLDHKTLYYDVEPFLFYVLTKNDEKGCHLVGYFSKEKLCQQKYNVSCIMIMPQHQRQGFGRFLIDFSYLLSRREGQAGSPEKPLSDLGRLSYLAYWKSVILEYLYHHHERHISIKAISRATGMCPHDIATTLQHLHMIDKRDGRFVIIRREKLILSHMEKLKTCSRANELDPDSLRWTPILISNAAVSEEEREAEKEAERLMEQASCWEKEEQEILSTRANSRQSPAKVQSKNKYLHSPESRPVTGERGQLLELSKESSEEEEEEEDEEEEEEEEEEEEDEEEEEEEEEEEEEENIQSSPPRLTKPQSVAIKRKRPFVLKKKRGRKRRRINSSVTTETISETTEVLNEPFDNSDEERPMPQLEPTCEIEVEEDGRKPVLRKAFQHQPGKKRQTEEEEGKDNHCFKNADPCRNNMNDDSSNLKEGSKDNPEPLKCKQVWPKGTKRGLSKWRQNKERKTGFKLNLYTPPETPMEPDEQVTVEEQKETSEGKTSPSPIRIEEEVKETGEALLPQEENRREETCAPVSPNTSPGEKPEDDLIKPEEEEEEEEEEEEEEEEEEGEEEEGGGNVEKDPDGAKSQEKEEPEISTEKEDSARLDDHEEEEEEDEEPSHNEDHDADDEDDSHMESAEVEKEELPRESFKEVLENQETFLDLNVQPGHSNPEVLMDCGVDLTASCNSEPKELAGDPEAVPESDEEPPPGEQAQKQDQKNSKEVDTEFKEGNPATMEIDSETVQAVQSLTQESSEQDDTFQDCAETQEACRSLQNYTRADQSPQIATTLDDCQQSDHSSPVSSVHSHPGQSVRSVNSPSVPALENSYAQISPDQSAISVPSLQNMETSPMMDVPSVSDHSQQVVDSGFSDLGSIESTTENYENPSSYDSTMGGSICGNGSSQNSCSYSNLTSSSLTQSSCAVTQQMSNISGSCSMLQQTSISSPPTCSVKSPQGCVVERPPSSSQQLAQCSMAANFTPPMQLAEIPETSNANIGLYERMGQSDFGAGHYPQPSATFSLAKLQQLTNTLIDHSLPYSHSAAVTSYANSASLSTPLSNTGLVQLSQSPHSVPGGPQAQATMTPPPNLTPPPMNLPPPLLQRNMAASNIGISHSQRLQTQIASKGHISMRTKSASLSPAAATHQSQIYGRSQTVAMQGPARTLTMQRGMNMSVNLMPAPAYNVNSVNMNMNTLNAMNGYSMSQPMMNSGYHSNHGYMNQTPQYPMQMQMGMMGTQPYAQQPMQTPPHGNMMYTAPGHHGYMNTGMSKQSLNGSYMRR

IC50 (KAT6B) | IC50 (KAT6A) | IC50 [1] | SMILES | IC50 (ZR-75-1 cells)
40.8 nM | 2.7 nM | 10.3 nM | COc1cc2c(cc1S(=O)(=O)Nc1noc3cc(Cn4cccn4)cc(OC)c13)OCCOC2 [Compound 8] | 4.2 nM
12.9 nM | 1.7 nM | 12.4 nM | COc1ccc2c(c1S(=O)(=O)Nc1noc3cc(Cn4cccn4)c(OC)c(C)c13)OCC1CC21 (centres unmarked) [Compound 40, N-(6-((1H-Pyrazol-1-yl)methyl)-5-methoxy-4-methylbenzo[d]isoxazol-3-yl)-5-methoxy-1,1a,2,7b-tetrahydrocyclopropa[c]chromene-4-sulfonamide] | 1.6 nM
81.7 nM | 12.9 nM | 9 nM | COc1cc(Cn2cccn2)cc2onc(NS(=O)(=O)c3cccc4c3OCCCO4)c12 [Compound 1, N-(6-((1H-Pyrazol-1-yl)methyl)-4-methoxybenzo[d]isoxazol-3-yl)-3,4-dihydro-2H-benz o[b] [1,4]dioxepine-6-sulfonamide] | 6.7 nM
2.7 nM | 1.3 nM | 1.1 nM | COc1ccc2c(c1S(=O)(=O)Nc1noc3cc(Cn4cccn4)c(F)c(OC)c13)OCC21CC1 [Compound 31, N-(6-((1H-Pyrazol-1-yl)methyl)-5-fluoro-4-methoxybenzo[d]isoxazol-3-yl)-6-methoxy-2H-spiro[benzofuran-3,1'-cyclopropane]-7-sulfonamide] | 0.3 nM
9.3 nM | 1.7 nM | 1.1 nM | COc1cc2c(NS(=O)(=O)c3c(OC)ccc4c3OCCCO4)noc2cc1Cn1cccn1 [Compound 15, N-(6-((1H-Pyrazol-1-yl)methyl)-5-methoxybenzo[d]isoxazol-3-yl)-7-methoxy-3,4-dihyd ro-2H-benzo[b][1,4] dioxepine-6-sulfonamide] | 0.6 nM
8 nM | 1.7 nM | 3.7 nM | COc1ccc2c(c1S(=O)(=O)Nc1noc3cc(Cn4cccn4)c4c(c13)OCC4)OCC21CC1 [Compound 36, N-(4-((1H-Pyrazol-1-yl)methyl)-2,3-dihydrobenzofuro[7,6-d]isoxazol-8-yl)-6-methoxy-2H-spiro[benzofuran-3,1'-cyclopropane]-7-sulfonamide] | 0.4 nM
40 nM | 6.5 nM | 4.5 nM | COc1ccc2c(c1S(=O)(=O)Nc1noc3cc(Cn4cccn4)c(F)cc13)OCCCO2 [Compound 12, N-(6-((1H-Pyrazol-1-yl)methyl)-5-fluorobenzo[d]isoxazol-3-yl)-7-methoxy-3,4-dihydro-2H-benzo [b] [1,4] dioxepine-6-sulfonamide] | 1.4 nM
3.7 nM | 1.5 nM | 0.5 nM | COc1ccc2c(c1S(=O)(=O)Nc1noc3cc(Cn4cccn4)cc(OC)c13)OCC1CC21 (centres unmarked) [Compound 5, N-(6-((1H-Pyrazol-1-yl)methyl)-4-methoxybenzo[d]isoxazol-3-yl)-5-methoxy-1,1a,2,7b-tetrahydrocyclopropa[c]chromene-4-sulfonamide] | 0.2 nM
11.1 nM | 2.5 nM | 1.9 nM | COc1ccc2c(c1S(=O)(=O)Nc1noc3cc(Cn4cccn4)cc(OC)c13)OC[C@H]1C[C@@H]21 [Compound 5-P1, (1aS,7bR)-N-(6-((1H-Pyrazol-1-yl)methyl)-4-methoxybenzo[d]isoxazol-3-yl)-5-methoxy-1,1a,2,7b-tetrahydrocyclopropa[c]chromene-4-sulfonamide] | 0.3 nM
4.1 nM | 1.6 nM | 1.2 nM | COc1ccc2c(c1S(=O)(=O)Nc1noc3cc(Cn4cccn4)c4c(c13)OCC4)OCC1CC21 (centres unmarked) [Compound 37, N-(4-((1H-Pyrazol-1-yl)methyl)-2,3-dihydrobenzofuro[7,6-d]isoxazol-8-yl)-5-methoxy-1,1a,2,7b-tetrahydrocyclopropa[c]chromene-4-sulfonamide] | 0.4 nM

SMILES | IC50 (KAT6B) | IC50 (KAT6A) | IC50 [1] | IC50 (ZR-75-1 cells)
COc1ccc2c(c1S(=O)(=O)Nc1noc3cc(Cn4cccn4)c(F)cc13)OCC1CC21 (single isomer, unassigned) [Compound 34] | 2.2 nM | 1.2 nM | 0.4 nM | 0.04 nM
